Assays:
Human GPR120 short form = molecular target: T1, Human GPR120 short form (Homo sapiens, UniProt Q5NUL3); assay: Human GPR120 calcium flux assay, Procedure Calcium B (4200 cells/well); format: cell-based
T1 construct: expressed in transfected cells
T1 sequence (Q5NUL3 1-361): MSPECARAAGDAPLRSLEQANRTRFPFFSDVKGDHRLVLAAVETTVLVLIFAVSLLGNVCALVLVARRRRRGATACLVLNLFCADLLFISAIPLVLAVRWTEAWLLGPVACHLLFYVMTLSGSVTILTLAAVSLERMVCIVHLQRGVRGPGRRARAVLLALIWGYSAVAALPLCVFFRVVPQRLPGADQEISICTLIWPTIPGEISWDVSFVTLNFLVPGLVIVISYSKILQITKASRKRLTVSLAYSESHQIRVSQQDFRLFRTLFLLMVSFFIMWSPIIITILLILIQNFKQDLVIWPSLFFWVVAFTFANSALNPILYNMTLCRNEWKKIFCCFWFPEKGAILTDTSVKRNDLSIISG
Protocol: Human GPR120 in Calcium Flux Assay
These cells are first loaded with the Ca^+2 sensitive dye, Fluo-4 NW. Upon stimulation, intracellular released Ca^+2 can bind to the dye and alter its fluorescence intensity. This increase in fluorescence signal, and thus the flux in intracellular [Ca^2+], is detected and quantitated by fluorescence imaging using a FLIPR reader. The effect of the agonist is measured as a function of concentration and used to calculate an EC50 based upon a response curve.
In this procedure 4200 cells/well were employed.
A Human GPR120 clone (Genbank accession number NM_001195755.1) was placed into the pcDNA3.1 mammalian expression vector carrying the neomycin resistance gene. A stable mammalian cell was generated by placing the above clone into a HEK293 background. […] Cells were split 2 times a week to keep the cells in the log-phase growth. […]
The assay was performed on a FLIPR plate reader using the following parameters. Baseline was read for 10 seconds at 1 sec intervals. The program was set to transfer 10 μL of ligand from compound plate to cell plate after baseline reading. Aspiration was executed at: 10 μL/sec speed, 4.6 μL height, Dispensing was executed at: 30 μL/sec speed, 45 μL height. After compound addition, each well was read for 300 sec, with measurements collected at 1 sec intervals.
The kinetic data from the FLIPR was based upon a 5 minute window for data collection. The fluorescence of each sample well was used for individual calculations of a normalized RFU value, which was defined as maximum response minus the minimum response. The normalized fluorescence reading (RFU) was calculated as follows: RFU=Fmax−Fmin
The Fitting Equation was: Y=Bottom+(Top-Bottom)/(1+10^((Log EC50−X)*HillSlope)), where X is the log of the concentration and Y is the response.

human GPR40 = molecular target: T2, human GPR40 (Homo sapiens, UniProt O14842); assay: GPR40 calcium flux assay, human GPR40; format: cell-based; conditions: HEK293 cells stably expressing GPR40; table does not say human or rat
T2 construct: expressed in transfected cells
T2 sequence (O14842 whole entry): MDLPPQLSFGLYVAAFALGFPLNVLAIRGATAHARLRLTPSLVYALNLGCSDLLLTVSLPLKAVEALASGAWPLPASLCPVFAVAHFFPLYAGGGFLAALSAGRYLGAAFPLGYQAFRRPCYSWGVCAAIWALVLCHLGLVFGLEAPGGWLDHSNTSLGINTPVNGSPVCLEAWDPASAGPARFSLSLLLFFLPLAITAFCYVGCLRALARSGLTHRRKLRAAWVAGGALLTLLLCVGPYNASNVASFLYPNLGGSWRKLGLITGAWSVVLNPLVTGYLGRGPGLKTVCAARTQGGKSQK
Protocol: Compounds were tested in a calcium flux assay using transfected HEK293 cells stably expressing either human GPR40 or rat GPR40. Human GPR40 expressing cells were cultured in DMEM−High Glucose media supplemented with 10% fetal bovine serum, 1×L-Glutamine, 1×Penicillin/Streptomycin and 500 μg/mL G418. Rat GPR40 expressing cells were cultured in DMEM−High Glucose media supplemented with 10% fetal bovine serum and 1 μg/mL puromycin. Cells were plated into poly-D-lysine coated 384-well plates and cultured overnight in a 37° C. humidified tissue culture incubator under 5% CO2/[…] atmosphere.
On the day of the experiment, the culture media was replaced with assay buffer (HBSS, 20 mM HEPES, 0.1% BSA) and the cells incubated at 37° C. for 1 h. Calcium-sensitive fluorescent dye (Fluo 8 No-Wash Calcium Dye, ABD Bioquest) was then added and the cells incubated for another 30 min at 37° C. followed by 15 min at room temperature while protected from the light. The cell plate and a plate of diluted compounds of Formula (I) were loaded into a fluorescent plate reader that added compounds onto the cells while measuring the fluorescence intensity of each well. The plate reader recorded fluorescence intensity at 1 second intervals for 8 min and provided the data for analysis in an Excel format. EC50 values were calculated using Prism (GraphPad) software.

Structure (SMILES) | EC50 (Human GPR120 short form) | EC50 (human GPR40)
CCC1CCC(COc2ccc(CCC(=O)O)c(C)c2C)=C1c1ccc(Cl)cc1 (stereo not shown) [Compound 6, 3-[4-[[2-(4-chlorophenyl)-3-ethyl-cyclopenten-1-yl]methoxy]-2,3-dimethyl-phenyl]Propanoic Acid] | > 5000 nM | > 5000 nM
Cc1c(CCC(=O)O)ccc(OCC2=C(c3ccc(Cl)cc3)C(C(C)C)CC2)c1C (stereo not shown) [Compound 46, 3-[4-[[2-(4-chlorophenyl)-3-isopropyl-cyclopenten-1-yl]methoxy]-2,3-dimethyl-phenyl]Propanoic Acid] | > 5000 nM | > 5000 nM
O=C(O)CCc1ccc(OCC2=C(c3ccc(Cl)cc3)CCC2)cc1C(F)(F)C(F)(F)F [Compound 89, 3-[4-[[2-(4-chlorophenyl)cyclopenten-1-yl]methoxy]-2-(1,1,2,2,2-pentafluoroethyl)phenyl]Propanoic Acid] | 1410 nM | –
O=C(O)CCc1cc(F)c(OCC2=C(c3ccc(Cl)cc3)CCC2)cc1C(F)(F)F [Compound 91, 3-[4-[[2-(4-chlorophenyl)cyclopenten-1-yl]methoxy]-5-fluoro-2-(trifluoromethyl)phenyl]Propanoic Acid] | > 5000 nM | > 5000 nM
Cc1cc(CCC(=O)O)c(C(F)(F)F)cc1OCC1=C(c2ccc(Cl)cc2)CCC1 [Compound 98, 3-[4-[[2-(4-chlorophenyl)cyclopenten-1-yl]methoxy]-5-methyl-2-(trifluoromethyl)phenyl]Propanoic Acid] | 2030 nM | > 5000 nM
O=C(O)CCc1cc(Br)c(OCC2=C(c3ccc(Cl)cc3)CCC2)c(Br)c1C(F)(F)F [Compound 101, 3-[3,5-dibromo-4-[[2-(4-chlorophenyl)cyclopenten-1-yl]methoxy]-2-(trifluoromethyl)phenyl]Propanoic Acid] | 1230 nM | > 5000 nM
O=C(O)CCc1ccc(OCC2=C(c3ccc(F)c(F)c3)CCC2)cc1 [Compound 103] | > 5000 nM | > 5000 nM
O=C(O)CCc1ccc(OCC2=C(c3ccc(Cl)cc3)CCC2)cc1 [Compound 107] | > 5000 nM | > 5000 nM
CCc1cc(CCC(=O)O)c(C(F)(F)F)cc1OCC1=C(c2ccc(Cl)cc2)CCC1 [Compound 142, 3-[4-[[2-(4-chlorophenyl)cyclopenten-1-yl]methoxy]-5-ethyl-2-(trifluoromethyl)phenyl]Propanoic Acid] | – | > 5000 nM
CC(Cc1cc(F)c(OCC2=C(c3ccc(Cl)cc3)CCC2)c(F)c1)C(=O)O (stereo not shown) [Compound 144, 3-[4-[[2-(4-chlorophenyl)cyclopenten-1-yl]methoxy]-3,5-difluoro-phenyl]-2-methyl-Propanoic Acid] | – | > 5000 nM
Cc1c(CCC(=O)O)ccc(OCC2=C(c3ccc(Cl)cc3)CCC2=O)c1C [Compound 145, 3-[4-[[2-(4-chlorophenyl)-5-oxo-cyclopenten-1-yl]methoxy]-2,3-dimethyl-phenyl]Propanoic Acid] | 2000 nM | > 5000 nM
CC(C)(C)c1cc(OCC2=C(c3ccc(Cl)cc3)CCC2)ccc1CCC(=O)O [Compound 168, 3-[2-tert-butyl-4-[[2-(4-chlorophenyl)cyclopenten-1-yl]methoxy]phenyl]Propanoic Acid] | > 5000 nM | –
CS(=O)(=O)CCCCc1cc(CCC(=O)O)ccc1OCC1=C(c2ccc(Cl)cc2)CCC1 [Compound 181, 3-[4-[[2-(4-chlorophenyl)cyclopenten-1-yl]methoxy]-3-(4-methylsulfonylbutyl)phenyl]Propanoic Acid] | > 5000 nM | –
CSCCCCc1cc(CCC(=O)O)ccc1OCC1=C(c2ccc(Cl)cc2)CCC1 [Compound 198, 3-[4-[[2-(4-chlorophenyl)cyclopenten-1-yl]methoxy]-3-(4-methylsulfanylbutyl)phenyl]Propanoic Acid] | 1290 nM | 2140 nM
O=C(O)CCc1cc(Cl)c(OCC2=C(c3ccc(F)cc3)CC(F)(F)C2)c(Cl)c1 [Compound 205, 3-[3,5-dichloro-4-[[4,4-difluoro-2-(4-fluorophenyl)cyclopenten-1-yl]methoxy]phenyl]Propanoic Acid] | 465 nM | > 5000 nM
N#Cc1cc(OCC2=C(c3ccc(F)cc3)CC(F)(F)C2)ccc1CCC(=O)O [Compound 207, 3-[2-cyano-4-[[4,4-difluoro-2-(4-fluorophenyl)cyclopenten-1-yl]methoxy]phenyl]Propanoic Acid] | 2100 nM | 1200 nM
Cc1cc(CCC(=O)O)ccc1OCC1=C(c2ccco2)CCC1 [Compound 208, 3-[4-[[2-(2-furyl)cyclopenten-1-yl]methoxy]-3-methyl-phenyl]Propanoic Acid] | 185 nM | > 5000 nM
O=C(O)CCc1ccc(OCC2=C(c3ccc(Cl)cc3)CC(F)C2)cc1Cl (stereo not shown) [Compound 252, 3-[2-chloro-4-[[2-(4-chlorophenyl)-4-fluoro-cyclopenten-1-yl]methoxy]phenyl]Propanoic Acid] | 265 nM | –
Cc1cc(OCC2=C(c3cccc(F)c3)CCC2)c(F)cc1CCC(=O)O [Compound 305, 3-[5-fluoro-4-[[2-(3-fluorophenyl)cyclopenten-1-yl]methoxy]-2-methyl-phenyl]Propanoic Acid] | 378 nM | –

The remaining lines, values ahead:

EC50 (Human GPR120 short form) | EC50 (human GPR40) | Structure (SMILES)
957 nM | – | Cc1cccc(C2=C(COc3cc(C)c(CCC(=O)O)cc3F)CCC2)c1 [Compound 318, 3-[5-fluoro-2-methyl-4-[[2-(m-tolyl)cyclopenten-1-yl]methoxy]phenyl]Propanoic Acid]
2580 nM | – | N#Cc1cc(OCC2=C(C3CCCC3)CCC2)ccc1CCC(=O)O [Compound 414, 3-[2-cyano-4-[(2-cyclopentylcyclopenten-1-yl)methoxy]phenyl]Propanoic Acid]
1190 nM | – | O=C(O)CCc1ccc(OCC2=C(CC3CCCC3)CCC2)cc1C(F)(F)F [Compound 420, 3-[4-[[2-(cyclopentylmethyl)cyclopenten-1-yl]methoxy]-2-(trifluoromethyl)phenyl]Propanoic Acid]
231 nM | – | Cc1c(CCC(=O)O)ccc(OCC2=C(CC3CCCC3)CCC2)c1C [Compound 427, 3-[4-[[2-(cyclopentylmethyl)cyclopenten-1-yl]methoxy]-2,3-dimethyl-phenyl]Propanoic Acid]
1570 nM | – | Cc1c(CCC(=O)O)cc(I)c(OCC2=C(c3ccc(I)cc3)CCCC2)c1C [Compound 524, 3-[5-iodo-4-[[2-(4-iodophenyl)cyclohexen-1-yl]methoxy]-2,3-dimethyl-phenyl]Propanoic Acid]
1070 nM | – | O=C(O)CCc1cc(F)c(OCC2=C(c3ccc(Cl)c(F)c3)CCC(F)(F)C2)c(F)c1 [Compound 528, 3-[4-[[2-(4-chloro-3-fluoro-phenyl)-5,5-difluoro-cyclohexen-1-yl]methoxy]-3,5-difluoro-phenyl]Propanoic Acid]
1280 nM | – | O=C(O)CCc1cc(F)c(OCC2=C(c3cncs3)CCC(F)(F)C2)c(F)c1 [Compound 549, 3-[4-[(5,5-difluoro-2-thiazol-5-yl-cyclohexen-1-yl)methoxy]-3,5-difluoro-phenyl]Propanoic Acid]
> 5000 nM | – | CS(=O)(=O)CCCCc1cc(CCC(=O)O)ccc1OCC1=C(c2ccc(Cl)cc2)CCC(F)(F)C1 [Compound 551, 3-[4-[[2-(4-chlorophenyl)-5,5-difluoro-cyclohexen-1-yl]methoxy]-3-(4-methylsulfonylbutyl)phenyl]Propanoic Acid]
3890 nM | – | CSCCCCc1cc(CCC(=O)O)ccc1OCC1=C(c2ccc(Cl)cc2)CCC(F)(F)C1 [Compound 565, 3-[4-[[2-(4-chlorophenyl)-5,5-difluoro-cyclohexen-1-yl]methoxy]-3-(4-methylsulfanylbutyl)phenyl]Propanoic Acid]
